The results in this text go back to PMC8316439, “An enzymatic activation of formaldehyde for nucleotide methylation” (Nature Communications, 2021).

Assay [1] has as its target T1, ThyX (Thermotoga maritima, UniProt Q9WYT0).
T1 sequence (Q9WYT0 1-220): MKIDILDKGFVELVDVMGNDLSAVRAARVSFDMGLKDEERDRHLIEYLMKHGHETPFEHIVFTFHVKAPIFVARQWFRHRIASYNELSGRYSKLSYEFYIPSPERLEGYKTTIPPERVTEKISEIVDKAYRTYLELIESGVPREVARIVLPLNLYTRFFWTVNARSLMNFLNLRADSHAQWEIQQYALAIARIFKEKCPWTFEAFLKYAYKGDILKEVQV
As to the kind of experiment: anaerobic methylation assay with purified ThyX (MS, […]-NMR); stopped-flow of FADH−•dUMP complex. Type of assay: biochemical.

In assay [2] the target is T1, ThyX. As to the kind of experiment: stopped-flow kinetics of reduced ThyX-dUMP (kon/koff). Type of assay: binding.

As for `O=c1ccn([C@H]2C[C@H](O)[C@@H](COP(=O)(O)O)O2)c(=O)[nH]1` [dUMP], on ThyX [1], the “anaerobic methylation assay with purified ThyX (MS, 13C-NMR); stopped-flow of FA” value was “confirmed the formation of dTMP only in the simultaneous presence of ThyX, NADPH, and CH2O”.
The Kd is the free concentration of one partner at which half of the binding sites on the other are occupied at equilibrium, for simple one-to-one binding. A high value points to a looser complex. At ThyX [2], `C=O` [formaldehyde] yielded a Kd of roughly 20 mM.
